Molecules are shown by their SMILES.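 Where inhibition never reached the appropriate level, the endpoint shown equals the highest concentration tested. Otherwise, values were interpolated linearly from a five-concentration, 48-hour dose response in 96-well plates. TGI is the concentration that stops growth completely.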 Bounds are passed on as bounds.

What all share (assay): inhibition of tumour cell growth, NCI panel, 48 h
For assay [1], the system named is K-562 leukemia.
The subject of assay [2] is SNB-19 CNS.
Assay [3] relates to SK-MEL-5 melanoma.
Assay [4] relates to HOP-62 NSCLC.
The subject of assay [5] is UO-31 renal.
The subject of assay [6] is HCC-2998 colon.
Assay [7] relates to A498 renal.
Assay [8] relates to KM12 colon.
For assay [9], the system named is SF-295 CNS.
Assay [10] concerns EKVX NSCLC.
Assay [11] relates to TK-10 renal.
Assay [12] concerns M14 melanoma.
In assay [13] the test system is SK-OV-3 ovarian.
Assay [14] has as its system SF-268 CNS.
The subject of assay [15] is DU-145 prostate.
Assay [16] concerns MCF7 breast.
The test system of assay [17] is BT-549 breast.
Assay [18] deals with MDA-MB-231 breast.
Assay [19] relates to HS 578T breast.

For `CCNC(C)Cc1ccccc1` (stereo not drawn), the TGI in [1], in assay [2], in [3], in assay [4], in [5] and in [6] was greater than 100 µM in each case. Moreover, the TGI in assay [7], in [8], in assay [9], in assay [10], in assay [11] and in [12] was greater than 100 µM throughout. Moreover, the TGI in assay [13] and in [14] was greater than 100 µM in each case.
With `Cc1ccccc1C(=O)c1c(O)c2c(c(O)c1Br)CCCC2`, the TGI in assay [1] was 47.8 µM; in [2], 54.7 µM; in assay [3], 35.4 µM; in [4], greater than 100 µM; in [5], 31.7 µM; in assay [6], 34 µM. For the same compound, the TGI was determined as 43.7 µM in assay [7]; 30.9 µM in assay [8]; 47.9 µM in assay [9]; 34.3 µM in assay [10]; 31.7 µM in assay [11]; 29.1 µM in assay [12]. In addition, the figures for the TGI in [13] and in assay [14] were 43.6 µM and 29 µM, respectively.
Regarding `CCC(C)n1c(C)nc2c1C(=O)c1ccccc1C2=O` (stereo not drawn), the TGI in assay [1], in [2], in assay [3], in [4], in assay [5] and in [6] was greater than 100 µM each time. Further, the TGI in [8], in [9], in [10], in assay [11], in assay [12] and in [13] was greater than 100 µM throughout. In assay [14], this compound displayed a TGI greater than 100 µM.
Turning to `CC(=O)OC12/C(=N/O)CCCCCC1c1ccccc12` (stereo not drawn), the TGI in [1], in assay [2], in [3], in [4], in assay [5] and in [8] was greater than 100 µM in each case. In addition, the TGI in [9], in assay [10], in [11], in assay [13] and in [14] was greater than 100 µM throughout.
In the case of `CN(C)CCOc1cccc2c1C(=O)c1ccccc1C2=O`, the TGI in assay [1] turned out to be 33.7 µM; in assay [2], 66.3 µM; in assay [3], 25.3 µM; in assay [4] it was 30.9 µM; in assay [5], 45.2 µM; in assay [6], 30.3 µM. Moreover, the TGI in [7] amounted to 33.3 µM; in assay [8], 26.2 µM; in assay [9], 29.3 µM; in [10] it was 34.6 µM; in [11], 66.6 µM; in assay [12] it was 26.3 µM. For the same compound, the TGI in assay [13] worked out at 81.2 µM; in assay [14], 27.3 µM.
As for `Nc1ccc(S(=O)(=O)Nc2nnc(S(N)(=O)=O)s2)cc1`, the TGI in assay [2], in assay [15], in [5], in assay [6], in assay [7] and in assay [16] was greater than 100 µM throughout. Besides, the TGI in [8], in [9], in [10], in assay [11], in [12] and in assay [13] was greater than 100 µM in each case. In addition, the TGI in [17], in assay [18] and in assay [14] was greater than 100 µM each time.
Take `C=C(CN(C)C)C(=O)c1ccccc1C`: the TGI in assay [1] is 45.9 µM; in [2], greater than 100 µM; in [3] it was greater than 100 µM; in [4], greater than 100 µM; in assay [15], greater than 100 µM; in assay [5], greater than 69.2 µM. The TGI in [6], in assay [7], in assay [8], in assay [9], in [10] and in assay [11] was greater than 100 µM each time. The results for the TGI in assay [12], in [13] and in assay [14] were 33.8 µM, greater than 100 µM and greater than 100 µM, respectively.
For `Oc1ccc(-c2csc(NNC3=NC/C(=C/c4ccc5c(c4)OCO5)S3)n2)cc1O`, the TGI is greater than 100 µM in assay [2]; greater than 100 µM in assay [3]; greater than 100 µM in assay [4]; greater than 100 µM in assay [15]; 69.2 µM in assay [5]; greater than 100 µM in [6]. Further, the TGI in assay [16] was greater than 100 µM; in [8], greater than 100 µM; in assay [9], greater than 100 µM; in assay [10], greater than 100 µM; in assay [11], 72.4 µM; in assay [12], greater than 100 µM. Further, the TGI in assay [13] and in [18] was greater than 100 µM in each case.
Consider `COC(=O)c1c2c(cc3c1CC1(Cc4cc5c(c(C=O)c4C1)CCCC5)C3)CCCC2` (stereo not drawn), for which the TGI in [1] was 85.3 µM; in assay [3], greater than 100 µM; in [4], greater than 100 µM; in [5] it was 0.268 µM; in assay [6], greater than 100 µM; in assay [7], greater than 100 µM. Moreover, the TGI in [16] is 87.2 µM; in [9], greater than 100 µM; in assay [10] it was greater than 100 µM; in assay [11], greater than 100 µM; in assay [19], greater than 100 µM; in assay [12], greater than 100 µM. Also, the TGI in assay [13] and in assay [18] was greater than 100 µM each time.
In the case of `OCC1OC(n2nc(-c3ccccc3)nc2-c2cnccn2)C(O)C(O)C1O` (stereo not drawn), the TGI in assay [1], in assay [2], in assay [3], in assay [4], in [15] and in assay [5] was greater than 100 µM in each case. Further, the TGI in assay [6], in assay [16], in assay [8], in assay [9], in [12] and in assay [13] was greater than 100 µM in each case. Moreover, the TGI in assay [17] and in [18] was greater than 100 µM throughout.
For the compound `CC(=O)[C@@H]1[C@@H](OC(=O)CCC(C)COC2OC(CO)C(O)C(O)C2O)C[C@H]2[C@@H]3CC=C4C[C@@H](OC5OC(CO)C(OC6OC(C)C(O)C(O)C6O)C(O)C5OC5OC(C)C(O)C(O)C5O)CC[C@]4(C)[C@H]3CC[C@]12C` (stereo partly drawn), the TGI in [1], in assay [2], in assay [3], in assay [4], in assay [15] and in assay [5] was greater than 100 µM throughout. Besides, the TGI in assay [6], in assay [7], in assay [16], in assay [8], in assay [9] and in [10] was greater than 100 µM each time. Also, the TGI in assay [11], in [12], in assay [13], in assay [17], in assay [18] and in [14] was greater than 100 µM in each case.
With `O=c1sc2c(s1)SSSSS2`, the TGI in assay [1], in [2], in assay [3], in assay [4], in assay [15] and in assay [5] was greater than 50 µM in each case. Also, the TGI in assay [6], in assay [7], in assay [16], in assay [8], in [9] and in assay [10] was greater than 50 µM throughout. Further, the TGI in assay [11], in assay [12], in assay [13], in assay [17], in [18] and in assay [14] was greater than 50 µM each time.
With `CCc1ccc(N=Cc2cc(OC)c(OC)c(OC)c2)cc1`, the TGI is 73.3 µM in [1]; greater than 100 µM in [2]; greater than 100 µM in assay [3]; greater than 100 µM in [4]; greater than 100 µM in assay [5]; greater than 100 µM in [7]. In addition, the TGI in assay [8], in [9], in assay [10], in assay [11], in [12] and in assay [13] was greater than 100 µM throughout. Besides, the TGI in assay [14] was greater than 100 µM.
As for `O=S(=O)(O)c1c(Cl)cc(O)c2ncccc12`, the TGI in [1], in [2], in assay [3], in assay [4], in assay [15] and in assay [5] was greater than 100 µM throughout. Besides, the TGI in assay [6], in [7], in assay [16], in [8], in assay [9] and in [10] was greater than 100 µM each time. Moreover, the TGI in assay [12], in assay [17] and in [18] was greater than 100 µM throughout.
In the case of `CC[C@@]1(N(C)C)C(=O)OCc2c1cc1n(c2=O)Cc2cc3ccccc3nc2-1`, the TGI was greater than 100 µM in assay [1]; greater than 100 µM in [2]; greater than 100 µM in assay [3]; 36.2 µM in assay [4]; 98.1 µM in [15]; 77 µM in assay [5]. Moreover, the TGI in [6] was greater than 100 µM; in [7], greater than 100 µM; in assay [16], greater than 100 µM; in [8], greater than 100 µM; in [9], 37.2 µM; in assay [10], greater than 100 µM. The TGI in assay [11] is greater than 100 µM; in [12] it was greater than 100 µM; in assay [13] it was 51.5 µM; in [17], 39.5 µM; in assay [18], greater than 100 µM; in assay [14], 36.7 µM.
In the case of `CC1CC(C)C(O)C(C2CC(CC(=O)NC3CCCCC3)CC(=O)O2)C1` (stereo not drawn), the TGI in assay [1], in [2], in [3], in [4], in assay [15] and in assay [6] was greater than 100 µM in each case. For the same compound, the TGI in assay [7], in assay [16], in assay [8], in assay [9], in [10] and in assay [11] was greater than 100 µM each time. The TGI in [19], in [12], in assay [18] and in [14] was greater than 100 µM in each case.
With `O=P1(O)C=CC2(CCCC2)O1`, the TGI in assay [1], in assay [2], in assay [3], in assay [4], in assay [15] and in assay [6] was greater than 100 µM in each case. Also, the TGI in assay [7], in assay [16], in [8], in [9], in [10] and in [11] was greater than 100 µM each time. Besides, the TGI in [12], in assay [13] and in [14] was greater than 100 µM in each case.
As for `C=CCOC(=O)N1[C@H]2C#C/C=C\C#C[C@]3(O)C(=O)C[C@H](C)[C@]24O[C@]43C2=CC(=O)C=CC21OC` (stereo partly drawn), the TGI was greater than 100 µM in assay [1]; greater than 100 µM in assay [2]; greater than 100 µM in assay [4]; greater than 100 µM in [15]; greater than 100 µM in assay [5]; 77.6 µM in assay [6]. In addition, the TGI in assay [7] was 38 µM; in [16], greater than 100 µM; in [8], 67.7 µM; in assay [9] it was greater than 100 µM; in assay [10] it was greater than 100 µM; in [11], 63.7 µM. For the same compound, the TGI was greater than 100 µM in [19]; greater than 100 µM in assay [12]; greater than 100 µM in [13]; 85.9 µM in assay [18]; greater than 100 µM in [14].
